Structures are written as SMILES.

Experiment [1] addresses Peroxisome proliferator-activated receptor alpha (Homo sapiens) (UniProt Q07869). Kind of experiment: Binding affinity at human PPARalpha by fluorescence polarization.
In experiment [2] the target is Peroxisome proliferator-activated receptor gamma (Homo sapiens) (UniProt P37231). In words: Binding affinity at human PPARgamma by fluorescence polarization.
In experiment [3] the target is T1, Peroxisome proliferator-activated receptor gamma (Homo sapiens, UniProt P37231).
T1 sequence (P37231 whole entry): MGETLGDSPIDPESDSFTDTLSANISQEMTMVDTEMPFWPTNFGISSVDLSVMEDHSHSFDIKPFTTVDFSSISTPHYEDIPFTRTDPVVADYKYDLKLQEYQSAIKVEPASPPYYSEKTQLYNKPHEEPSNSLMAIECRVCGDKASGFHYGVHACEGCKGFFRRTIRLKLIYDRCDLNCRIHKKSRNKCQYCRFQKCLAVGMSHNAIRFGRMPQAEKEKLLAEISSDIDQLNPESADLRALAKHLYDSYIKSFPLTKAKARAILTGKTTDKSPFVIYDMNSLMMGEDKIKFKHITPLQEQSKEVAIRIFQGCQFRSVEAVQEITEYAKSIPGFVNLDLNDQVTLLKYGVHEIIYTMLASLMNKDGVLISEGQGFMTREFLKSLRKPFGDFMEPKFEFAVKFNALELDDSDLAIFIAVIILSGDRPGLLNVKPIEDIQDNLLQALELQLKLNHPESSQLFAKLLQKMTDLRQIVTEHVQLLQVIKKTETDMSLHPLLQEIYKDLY
In words: Agonist activity at human PPARgamma expressed in HEK293 cells assessed as luciferase activity by GAL4 transactivation assay. In kind it is functional, cell-based.

Experiment [4] deals with T2, Peroxisome proliferator-activated receptor alpha (Homo sapiens, UniProt Q07869).
T2 sequence (Q07869 whole entry): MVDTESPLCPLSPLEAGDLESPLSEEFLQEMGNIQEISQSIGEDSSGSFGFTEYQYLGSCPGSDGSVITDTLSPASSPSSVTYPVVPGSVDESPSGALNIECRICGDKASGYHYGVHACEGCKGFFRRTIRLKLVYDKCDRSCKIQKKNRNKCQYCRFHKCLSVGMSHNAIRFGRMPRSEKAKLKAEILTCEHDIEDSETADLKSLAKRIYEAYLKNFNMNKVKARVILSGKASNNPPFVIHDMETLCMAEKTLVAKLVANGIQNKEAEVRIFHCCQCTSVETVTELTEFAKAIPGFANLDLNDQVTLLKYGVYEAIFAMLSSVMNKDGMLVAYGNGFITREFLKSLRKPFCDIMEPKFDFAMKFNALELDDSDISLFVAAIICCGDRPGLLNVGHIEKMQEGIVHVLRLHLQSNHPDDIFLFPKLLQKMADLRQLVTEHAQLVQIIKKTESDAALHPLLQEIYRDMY
Kind of experiment: Agonist activity at human PPARalpha expressed in HEK293 cells assessed as luciferase activity by GAL4 transactivation assay. The format is functional, cell-based.

For `Cc1oc(-c2ccccc2)nc1CCOc1ccc(C2=C(C(=O)O)CCN(C(=O)OCC(C)C)C2)cc1`, the IC50 in experiment [1] is over 27300 nM; in experiment [2], 7400 nM. Moreover, the values for the half-maximal effective concentration (EC50) in experiment [3] and in experiment [4] were 4650 nM and 5570 nM, respectively.

As for `Cc1oc(-c2ccccc2)nc1CCOc1cccc(CC2=C(C(=O)O)CCN(c3nccc(C(F)(F)F)n3)C2)c1`, the figures for the IC50 in experiment [1] and in experiment [2] were 1330 nM and 1380 nM, respectively. The EC50 in experiment [3] is 644 nM; in experiment [4] it was 89 nM.

As to `Cc1oc(-c2ccccc2)nc1CCOc1cccc(C2=C(CC(=O)O)CCN(C(=O)Oc3ccccc3)C2)c1`, the IC50 in experiment [1] was 16 nM; in experiment [2], 34 nM. Further, the EC50 in experiment [3] was 46 nM; in experiment [4] it was 4 nM.

In the case of `Cc1oc(-c2ccccc2)nc1CCOc1ccc(C[C@@H]2CN(c3nccc(C(F)(F)F)n3)C[C@@H]2C(=O)O)cc1`, the results for the EC50 in experiment [3] and in experiment [4] were 7 nM and 165 nM, respectively.

In the case of `Cc1oc(-c2ccccc2)nc1CCOc1cccc(C2=C(C(=O)O)CCN(Cc3ccccc3)C2)c1`, the IC50 in experiment [1] and in experiment [2] was over 27500 nM in each case. The EC50 in experiment [3] and in experiment [4] was over 7500 nM throughout.

Regarding `CCCOC(=O)N1CCC(C(=O)O)=C(Cc2cccc(OCCc3nc(-c4ccccc4)oc3C)c2)C1`, the EC50 in experiment [3] was 180 nM.

Consider `Cc1oc(-c2ccccc2)nc1CCOc1ccc(CC2=C(C(=O)O)CCN(C(=O)OCC(C)C)C2)cc1`, for which the half-maximal inhibitory concentration (IC50) came to 1170 nM in experiment [1] and 3040 nM in experiment [2]. Further, the figures for the EC50 in experiment [3] and in experiment [4] were 1120 nM and 28 nM, respectively.

Take `Cc1oc(-c2ccccc2)nc1CCOc1ccc(CCC2=C(C(=O)O)CCN(C(=O)OCC(C)C)C2)cc1`: the IC50 in experiment [1] amounted to 255 nM; in experiment [2], 110 nM. The EC50 in experiment [3] came to 74 nM; in experiment [4], 56 nM.

For the compound `Cc1oc(-c2ccccc2)nc1CCOc1cccc(CC2=C(C(=O)O)CCN(C(=O)OCc3ccccc3)C2)c1`, the IC50 in experiment [1] was over 15000 nM; in experiment [2], 4730 nM. For the same compound, the EC50 in experiment [3] was over 3500 nM; in experiment [4], 4920 nM.

As to `Cc1oc(-c2ccccc2)nc1CCOc1cccc(C2=C(CC(=O)O)CCN(C(=O)OCC(C)C)C2)c1`, the IC50 was 130 nM in experiment [1] and 49 nM in experiment [2]. For the same compound, the figures for the EC50 in experiment [3] and in experiment [4] were 18 nM and 6 nM, respectively.

Turning to `Cc1oc(-c2ccccc2)nc1CCOc1cccc(C2CN(C(=O)OCC(C)C)CCC2CC(=O)O)c1` (racemic), the results for the half-inhibitory concentration (IC50) in experiment [1] and in experiment [2] were over 15000 nM and 3090 nM, respectively. The figures for the EC50 in experiment [3] and in experiment [4] were 490 nM and 580 nM, respectively.

For the compound `Cc1oc(-c2ccccc2)nc1CCOc1cccc(CC2=CN(c3nccc(C(F)(F)F)n3)CCC2C(=O)O)c1` (racemic), the half-maximal inhibitory concentration (IC50) in experiment [1] was found to be 1080 nM; in experiment [2], 287 nM. The EC50 in experiment [3] is 14 nM; in experiment [4] it was 23 nM.

With `Cc1oc(-c2ccccc2)nc1CCOc1ccc(CCC2CN(C(=O)OCC(C)C)CCC2C(=O)O)cc1` (racemic), the half-inhibitory concentration (IC50) in experiment [1] is 711 nM; in experiment [2] it was 450 nM. In addition, the 50% effective concentration (EC50) in experiment [3] stood at 263 nM; in experiment [4], 44 nM.

On to `Cc1oc(-c2ccccc2)nc1CCOc1ccc(CC2CN(C(=O)OCC(C)C)CCC2C(=O)O)cc1` (racemic), for which the results for the IC50 in experiment [1] and in experiment [2] were 215 nM and 1250 nM, respectively. The EC50 is 257 nM in experiment [3] and 5 nM in experiment [4].

Regarding `Cc1oc(-c2ccccc2)nc1CCOc1cccc(CC2CN(C(=O)OCC(C)C)CCC2C(=O)O)c1` (racemic), the IC50 in experiment [1] came to 1370 nM; in experiment [2] it was 6030 nM. The EC50 amounted to 1070 nM in experiment [3] and 18 nM in experiment [4].

Take `Cc1oc(-c2ccccc2)nc1CCOc1cccc(C2CN(C(=O)OCC(C)C)CCC2C(=O)O)c1` (racemic): the results for the IC50 in experiment [1] and in experiment [2] were 7620 nM and over 27300 nM, respectively. Moreover, the EC50 in experiment [3] is over 7500 nM; in experiment [4], 209 nM.

For `Cc1oc(-c2ccccc2)nc1CCOc1cccc(CC2=CN(C(=O)OCc3ccccc3)CCC2C(=O)O)c1` (racemic), the IC50 in experiment [1] amounted to 654 nM; in experiment [2], 133 nM. For the same compound, the EC50 was 24 nM in experiment [3] and 16 nM in experiment [4].

For `Cc1oc(-c2ccccc2)nc1CCOc1cccc(C2CN(C(=O)Oc3ccccc3)CCC2CC(=O)O)c1` (racemic), the values for the IC50 in experiment [1] and in experiment [2] were 8120 nM and 7690 nM, respectively. Further, the values for the EC50 in experiment [3] and in experiment [4] were 1290 nM and 170 nM, respectively.

As to `COc1ccc(OC(=O)N(CC(=O)O)Cc2ccc(OCCc3nc(-c4ccccc4)oc3C)cc2)cc1` [MURAGLITAZAR], the EC50 in experiment [4] was 1410 nM.

For the origin of these results see ChEMBL document CHEMBL1145588, “Design, synthesis, and structure-activity relationships of piperidine and dehydropiperidine carboxylic acids as novel, potent dual PPARalpha/gamma agonists” (Bioorg Med Chem Lett, 2008).
